In US9890111B2, “Crystal structure of bifunctional transglycosylase PBP1b from E. coli and inhibitors thereof” (Academia Sinica, priority 2008, dated 2018):
Converted amounts (≈) assume the structure as drawn.

What was measured:
[1] = test system: Mycobacterium smegmatis (ATCC11565, MS); test: Minimal inhibitory concentration (MIC), MS; format: cell-based; settings: for MIC: Mycolicibacterium smegmatis, ATCC11565, Mycobacterium smegmatis ATCC11565, read-out: MIC MS; for MIC MS: Mycobacterium smegmatis ATCC11565
Procedure: (§1) The minimal inhibitory concentration (MIC) of tested compounds was determined following the NCCLS standard. The experiments were conducted in 96-well microtiter plates using two-fold dilutions in Muller-Hilton broth with (Streptococcus pneumonia) or without blood (Bacillus subtilis, Enterococcus faecalis, Staphylococcus aureus, Escherichia coli, MRSA, Actinetobacter baumannii, Pseudomonas aeruginosa, Stenotrophomonas maltophilia, and Mycobacterium smegmatis). Exponentially growing cells at 5×10^5 cells/ml were incubated with test compounds at various concentrations. After an 18 h to 24 h incubation at 37° C., MIC was determined as the minimal concentration of the compound that prevents bacterial growth.

[2] = test system: Staphylococcus aureus (ATCC29213, SA); test: Minimal inhibitory concentration (MIC), SA; format: cell-based; settings: for MIC: Staphylococcus aureus, ATCC29213, Staphylococcus aureus ATCC29213, read-out: MIC SA; for MIC SA: Staphylococcus aureus ATCC29213
Procedure: as §1

[3] = test system: methicillin-resistant Staphylococcus aureus (ATCC33592, MRSA); test: Minimal inhibitory concentration (MIC), MRSA; format: cell-based; settings: methicillin-resistant Staphylococcus aureus ATCC33592; for MIC: Staphylococcus aureus, read-out: MIC MRSA
Procedure: as §1

[4] = molecular target: T1, penicillin-binding protein 1b from E. coli (transglycosylase) (Escherichia coli, UniProt P02919); test: Lipid II polymerization / transglycosylase (TG) activity assay; format: biochemical; settings: for TG Activity at various concentration of cmpd: 50 μM: 50 μM compound; for TG Activity at various concentration of cmpd: 50 μM / TG Activity at various concentration of cmpd: 100 μM / TG Activity at various concentration of cmpd: 25 μM: TG activity remaining (0% = full inhibition); for TG Activity at various concentration of cmpd: 100 μM: 100 μM compound; for TG Activity at various concentration of cmpd: 25 μM: 25 μM compound; for remaining activity at 50 µM: read-out: TG Activity at various concentration of cmpd: 50 μM; for remaining activity at 100 µM: read-out: TG Activity at various concentration of cmpd: 100 μM
T1 construct: PBP1b[58-804] was amplified from E. coli genomic DNA and cloned into the expression vector pET15b; His6 (N, cleaved yes); made in house; host or cells: E. coli BL21(DE3)
T1 sequence (P02919 58-804): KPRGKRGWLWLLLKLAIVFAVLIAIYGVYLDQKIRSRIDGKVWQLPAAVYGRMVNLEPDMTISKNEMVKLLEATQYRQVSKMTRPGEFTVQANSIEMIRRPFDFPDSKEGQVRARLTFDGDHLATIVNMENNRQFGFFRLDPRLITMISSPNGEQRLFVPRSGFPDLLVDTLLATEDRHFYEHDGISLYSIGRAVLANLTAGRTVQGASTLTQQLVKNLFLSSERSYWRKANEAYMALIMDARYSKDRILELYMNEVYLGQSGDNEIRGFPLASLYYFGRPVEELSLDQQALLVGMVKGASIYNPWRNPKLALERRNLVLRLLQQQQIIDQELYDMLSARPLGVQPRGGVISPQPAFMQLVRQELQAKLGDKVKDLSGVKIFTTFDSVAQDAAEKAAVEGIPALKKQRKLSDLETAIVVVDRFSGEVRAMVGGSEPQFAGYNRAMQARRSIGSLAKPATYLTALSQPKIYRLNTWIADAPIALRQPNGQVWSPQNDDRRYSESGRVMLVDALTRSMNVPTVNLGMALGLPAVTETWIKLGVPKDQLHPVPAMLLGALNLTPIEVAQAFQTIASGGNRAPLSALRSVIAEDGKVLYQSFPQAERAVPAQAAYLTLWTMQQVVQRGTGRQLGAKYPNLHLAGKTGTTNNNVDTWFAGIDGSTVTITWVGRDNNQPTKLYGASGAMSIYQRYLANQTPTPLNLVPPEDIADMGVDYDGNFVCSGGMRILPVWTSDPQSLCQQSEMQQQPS
Procedure: Lipid II polymerization assays were carried out by incubating 100 μM fluorophore-labeled lipid II and penicillin-binding protein 1b from E. coli in tubes containing 10 ng/μL N-acetyl muramidase in 50 mM Tris.HCl (pH 8.0), 10 mM MgCl2, 0.1% Triton X-100, 10% DMSO, and 15% MeOH for 30 minutes (Van Nieuwenhze et al. J Am Chem Soc 2002, 124, 3656.). The fluorophore can be dansyl chloride, NBD, BODIPY, fluorescein. Reaction supernatants were then injected onto an anion-exchange HPLC column (SAX1, Supelco Co.) and eluted with a linear gradient of ammonium acetate (20 mM to 0.5 M) in methanol. The eluant was monitored for fluorescence with λex=466 nm and λem=535 nm.
Purified protein was concentrated in 20 mM Tris-HCl (pH 8.0), 300 mM NaCl, and 1 mM DDM. Instead of using Dansyl lipid II, 6-(N-(7-nitrobenz-2-oxa-1,3-diazol-4-yl)amino) hexanoyl (NBD)-labeled Lipid II was prepared as described (Taubes G (2008) Science 321:356-361; Payne D J (2008) Science 321:1644-1645) and used as a substrate to measure TG enzymatic activity, with approach similar to what has been described previously (Holtje J V (1998) Microbiol Mol Biol Rev 62:181-203). Assays were carried out by using the following condition: NBD-Lipid II, 20 nM protein, 50 mM Tris HCl (pH 8.0), 10 mMCaCl2, 0.085% decyl PEG (Anatrace), and 15% MeOH at 37° C. for 0, 1, 3, 5, 7, 9, 20, and 30 min. The concentration of NBD-Lipid II was varied from 1 to 100 μM to determine the rate of the TG activity. After the reaction, 200 μM moenomycin was added to stop the reaction, and 13 μM muramidase (Sigma-Aldrich) was added to digest the TG products to result in NBD-Lipid II without lipid tails. The fluorescent signal decrease of substrate and increase of NBD-Lipid II without lipid tails were detected by anion-exchange column SAX1 (Supelco) on HPLC (Hitachi). The elution procedures was a linear gradient of ammonium acetate (20 mM to 1 M) in MeOH monitored at λexcitation=466 nm and λemission=535 nm. The kinetic parameter was estimated by following the Michaelis-Menten equation. To investigate the importance of transmembrane (TM) helix, PBP1b and PBP1bΔTM (residues Met-1 to Leu-87 were removed) were extracted with the buffer containing 20 mM Tris-HCl (pH 8.0), 300 mM NaCl, and 13 mM FOS-CHOLINE-14 (Anatrace). The protein was purified by nickel chelation chromatography in the presence of 1 mM DDM. The activity assay was carried out by using the following condition: 12 μM NBD-Lipid II, 20 nM protein, 50 mM Tris-HCl (pH 8.0), 10 mM CaCl2, 0.085% decyl PEG, and 15% MeOH at 37° C. for time 0, 1, 3, 5, 7, 9, 20, and 30 min. The initial velocity was used to compare the activity of full-length PBP1b and PBP1bΔTM.

Compound | MIC MS [1] [µg/mL] | MIC SA [2] [µg/mL] | MIC MRSA [3] [µg/mL] | TG Activity at various concentration of cmpd: 50 μM [4] [%] | TG Activity at various concentration of cmpd: 100 μM [4] [%] | further results
O=C(Nc1cc(Cl)ccc1Cl)c1cc(Cl)cc(Cl)c1O [Compound 141] |  |  |  |  |  | MIC [1]: 2 µg/mL (≈ 5.7 µM); MIC [2]: 1 µg/mL (≈ 2.85 µM); MIC [3]: 0.5 µg/mL (≈ 1.42 µM)
O=C(Nc1cc(Cl)c(Cl)c(Cl)c1)c1cc(Cl)cc(Cl)c1O [Compound 142] | 0.125 (≈ 0.324 µM) | 0.5 (≈ 1.3 µM) | 0.5 (≈ 1.3 µM) |  |  | 
Cc1ccc(C(=O)c2cc(Cl)cc(NC(=O)c3cc(Br)cc(Br)c3O)c2Cl)cc1 [Compound 145] | >4 | >4 | >4 | 100 | 0 | 
Cc1ccc(C(C)C)c(Oc2ccccc2NC(=O)c2cc(I)cc(I)c2O)c1 [Compound 201] | 8 (≈ 13 µM) | 4 (≈ 6.52 µM) | 2 (≈ 3.26 µM) | 0 |  | TG Activity at various concentration of cmpd: 25 μM [4]: 30%
Cc1ccc(C(C)C)c(Oc2cc(Cl)ccc2NC(=O)c2cc(Br)cc(Br)c2O)c1 [Compound 202] | 1 (≈ 1.81 µM) | 1 (≈ 1.81 µM) | 1 (≈ 1.81 µM) | 0 |  | TG Activity at various concentration of cmpd: 25 μM [4]: 20%
O=C(Nc1cccc(Cl)c1)c1cc(Br)cc(Br)c1O [Compound 203] |  |  |  |  |  | MIC [1]: 4 µg/mL (≈ 9.87 µM); MIC [2]: 2 µg/mL (≈ 4.93 µM); MIC [3]: 2 µg/mL (≈ 4.93 µM); remaining activity at 50 µM [4]: 100%; remaining activity at 100 µM [4]: 100%
Cc1ccc(C(C)C)c(Oc2ccccc2NC(=O)c2cc(Br)cc(Br)c2O)c1 [Compound 204] | 8 (≈ 15.4 µM) | 1 (≈ 1.93 µM) | 4 (≈ 7.7 µM) | 0 |  | TG Activity at various concentration of cmpd: 25 μM [4]: 50%
Cc1ccc(C(C)C)cc1Oc1ccc(Cl)cc1NC(=O)c1cc(Cl)ccc1O [Compound 205] | 1 (≈ 2.32 µM) | 0.5 (≈ 1.16 µM) | 0.5 (≈ 1.16 µM) | 90 |  | 
Cc1ccc(C(C)C)cc1Oc1ccc(Cl)cc1NC(=O)c1cc(Cl)cc(Br)c1O [Compound 206] | 1 (≈ 1.96 µM) | 1 (≈ 1.96 µM) | 0.5 (≈ 0.982 µM) | 0 |  | TG Activity at various concentration of cmpd: 25 μM [4]: 60%
O=C(c1ccc(Cl)cc1)c1ccc(Oc2ccc(Cl)cc2)c(NC(=O)c2cc(I)cc(I)c2O)c1 [Compound 207] | 32 (≈ 43.8 µM) | 8 (≈ 11 µM) | 4 (≈ 5.48 µM) | 0 |  | TG Activity at various concentration of cmpd: 25 μM [4]: 20%
Cc1ccc(C(C)C)c(Oc2ccc(Cl)cc2NC(=O)c2cc(I)cc(I)c2O)c1 [Compound 208] | 2 (≈ 3.09 µM) | 4 (≈ 6.18 µM) | 0.5 (≈ 0.772 µM) | 0 |  | TG Activity at various concentration of cmpd: 25 μM [4]: 100%
Cc1ccc(C(C)C)c(Oc2ccc(Cl)cc2NC(=O)c2cc(Cl)cc(Cl)c2O)c1 [Compound 209] | 0.5 (≈ 1.08 µM) | 1 (≈ 2.15 µM) | 0.25 (≈ 0.538 µM) | 0 |  | TG Activity at various concentration of cmpd: 25 μM [4]: 60%
O=C(Nc1ccccc1Oc1ccccc1)c1cc(Br)cc(Br)c1O [Compound A1N2] |  | >32 |  | 100 | 100 | 
O=C(Nc1ccc(Cl)cc1)c1cc(Br)cc(Br)c1O [Compound A1N4] |  | 1 (≈ 2.47 µM) |  | 100 |  | 
O=C(Nc1cc(Cl)ccc1Oc1ccccc1)c1cc(Br)cc(Br)c1 [Compound A2N1] |  | >32 |  | 100 | 100 | 
O=C(Nc1ccccc1Oc1ccccc1)c1cc(Br)cc(Br)c1 [Compound A2N2] |  | >32 |  | 100 | 100 | 

Compound | MIC MS [1] [µg/mL] | MIC SA [2] [µg/mL] | MIC MRSA [3] [µg/mL] | TG Activity at various concentration of cmpd: 50 μM [4] [%] | TG Activity at various concentration of cmpd: 100 μM [4] [%] | further results
Cc1ccc(NC(=O)c2cc(Br)cc(Br)c2)cc1Cl [Compound A2N3] |  | >32 |  | 100 | 100 | 
O=C(Nc1cc(Cl)ccc1Oc1ccccc1)c1ccccc1O [Compound A3N1] |  | 1 (≈ 2.94 µM) |  | 100 | 100 | 
O=C(Nc1ccccc1Oc1ccccc1)c1ccccc1O [Compound A3N2] |  | 8 (≈ 26.2 µM) |  | 100 | 100 | 
Cc1ccc(NC(=O)c2ccccc2O)cc1Cl [Compound A3N3] |  |  |  |  |  | MIC [2]: 4 µg/mL (≈ 15.3 µM); remaining activity at 50 µM [4]: 100%; remaining activity at 100 µM [4]: 100%
O=C(Nc1ccc(Cl)cc1)c1ccccc1O [Compound A3N4] |  |  |  |  |  | MIC [2]: 8 µg/mL (≈ 32.3 µM); remaining activity at 50 µM [4]: 100%; remaining activity at 100 µM [4]: 100%
O=C(Nc1ccc([N+](=O)[O-])cc1)c1ccccc1O [Compound A3N5] |  |  |  |  |  | MIC [2]: 4 µg/mL (≈ 15.5 µM); remaining activity at 50 µM [4]: 100%; remaining activity at 100 µM [4]: 100%
COc1ccc(NC(=O)c2ccccc2O)cc1 [Compound A3N6] |  |  |  |  |  | MIC [2]: > 32 µg/mL; remaining activity at 50 µM [4]: 100%; remaining activity at 100 µM [4]: 100%
O=C(Nc1cc(Cl)ccc1Oc1ccccc1)c1ccccc1 [Compound A4N1] |  | >32 |  | 100 | 100 | 
Cc1ccc(NC(=O)c2ccccc2)cc1Cl [Compound A4N3] |  | >32 |  | 100 | 100 | 
O=C(Nc1cc(Cl)ccc1Oc1ccccc1)c1ccc(O)c(O)c1O [Compound A5N1] |  | 8 (≈ 21.5 µM) |  | 100 | 0 | 
O=C(Nc1ccccc1Oc1ccccc1)c1ccc(O)c(O)c1O [Compound A5N2] |  | 8 (≈ 23.7 µM) |  | 100 | 0 | 
Cc1ccc(NC(=O)c2ccc(O)c(O)c2O)cc1Cl [Compound A5N3] |  |  |  |  |  | MIC [2]: 4 µg/mL (≈ 13.6 µM); remaining activity at 50 µM [4]: 100%; remaining activity at 100 µM [4]: 0%
O=C(Nc1cc(Cl)ccc1Oc1ccccc1)c1ccc(O)cc1 [Compound A6N1] |  | 16 (≈ 47.1 µM) |  | 100 | 100 | 
O=C(Nc1ccccc1Oc1ccccc1)c1ccc(O)cc1 [Compound A6N2] |  | >32 |  | 100 | 100 | 
Cc1ccc(NC(=O)c2ccc(O)cc2)cc1Cl [Compound A6N3] |  | 32 (≈ 122 µM) |  | 100 | 100 | 
